Experimental data as given in PubChem BioAssay AID2060499 (Molecular Pharmacology Branch, DTP, NCI, 2025).

System: 777334-354-R2-J4-PDC tumor spheroids with HUVEC/MSC, viability
Experiment: Anticancer human tumor 777334-354-R2-J4-PDC patient-derived pancreatic adenocarcinoma cell line growth inhibition [GQUAD]
Conditions: for IC50: curve of first compound; for viability, T/C: stronger effect = lower value
In short: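 Viability of tumor cells grown as complex spheroids with endothelial and stromal cells, exposed to drug combinations. Top concentration at or near clinical Cmax (else 10 microM), diluted in half-log increments.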

[1] = second compound 0.0316 µM, first compound 0.0316 µM
[2] = second compound 0.0316 µM, first compound 0.1 µM
[3] = second compound 0.0316 µM, first compound 0.316 µM
[4] = second compound 0.0316 µM, first compound 1 µM
[5] = second compound 0.0316 µM, first compound 3.16 µM
[6] = second compound 0.0316 µM, first compound 10 µM
[7] = second compound 0.1 µM, first compound 0.0316 µM
[8] = second compound 0.1 µM, first compound 0.1 µM
[9] = second compound 0.1 µM, first compound 0.316 µM
[10] = second compound 0.1 µM, first compound 1 µM
[11] = second compound 0.1 µM, first compound 3.16 µM
[12] = second compound 0.1 µM, first compound 10 µM
[13] = second compound 0.316 µM, first compound 0.0316 µM
[14] = second compound 0.316 µM, first compound 0.1 µM
[15] = second compound 0.316 µM, first compound 0.316 µM
[16] = second compound 0.316 µM, first compound 1 µM
[17] = second compound 0.316 µM, first compound 3.16 µM
[18] = second compound 0.316 µM, first compound 10 µM
[19] = second compound 1 µM, first compound 0.0316 µM
[20] = second compound 1 µM, first compound 0.1 µM
[21] = second compound 1 µM, first compound 0.316 µM
[22] = second compound 1 µM, first compound 1 µM
[23] = second compound 1 µM, first compound 3.16 µM
[24] = second compound 1 µM, first compound 10 µM
[25] = second compound 3.16 µM, first compound 0.0316 µM
[26] = second compound 3.16 µM, first compound 0.1 µM
[27] = second compound 3.16 µM, first compound 0.316 µM
[28] = second compound 3.16 µM, first compound 1 µM
[29] = second compound 3.16 µM, first compound 3.16 µM
[30] = second compound 3.16 µM, first compound 10 µM
[31] = second compound 10 µM, first compound 0.0316 µM
[32] = second compound 10 µM, first compound 0.1 µM
[33] = second compound 10 µM, first compound 0.316 µM
[34] = second compound 10 µM, first compound 1 µM
[35] = second compound 10 µM, first compound 3.16 µM
[36] = second compound 10 µM, first compound 10 µM
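Also: spheroids exposed to compounds for 7 days before readout.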

COc1cc(C2c3cc4c(cc3C(OC3OC5COC(C)OC5C(O)C3O)C3COC(=O)C23)OCO4)cc(OC)c1O (centres undefined) + Cc1[nH]c2ccc(F)cc2c1-c1nc2c3cccnc3c3ncccc3c2[nH]1
IC50 (second compound 0.0316 µM): 6.31 µM | IC50 (second compound 0.1 µM): 7.25 µM | IC50 (second compound 0.316 µM): 5.37 µM | IC50 (second compound 1 µM): 3.27 µM | IC50 (second compound 3.16 µM): < 0.0316 µM | IC50 (second compound 10 µM): < 0.0316 µM | viability, T/C [1]: 95.9% | viability, T/C [2]: 91% | viability, T/C [3]: 90.1% | viability, T/C [4]: 71.4% | viability, T/C [5]: 64.4% | viability, T/C [6]: 41.5% | viability, T/C [7]: 104% | viability, T/C [8]: 91.7% | viability, T/C [9]: 90.2% | viability, T/C [10]: 72.1% | viability, T/C [11]: 63.4% | viability, T/C [12]: 44.7% | viability, T/C [13]: 72.8% | viability, T/C [14]: 88.6% | viability, T/C [15]: 84.1% | viability, T/C [16]: 80% | viability, T/C [17]: 58.8% | viability, T/C [18]: 39.7% | viability, T/C [19]: 89.5% | viability, T/C [20]: 78.7% | viability, T/C [21]: 73.5% | viability, T/C [22]: 63.6% | viability, T/C [23]: 54.1% | viability, T/C [24]: 32.3% | viability, T/C [25]: 36.6% | viability, T/C [26]: 47.1% | viability, T/C [27]: 33.7% | viability, T/C [28]: 22.4% | viability, T/C [29]: 22.2% | viability, T/C [30]: 15.9% | viability, T/C [31]: 32.6% | viability, T/C [32]: 22.6% | viability, T/C [33]: 27.6% | viability, T/C [34]: 15.1% | viability, T/C [35]: 16% | viability, T/C [36]: 12%

COc1cccc2c1C(=O)c1c(O)c3c(c(O)c1C2=O)CC(O)(C(=O)CO)CC3OC1CC(N)C(O)C(C)O1 (centres undefined) + Cc1[nH]c2ccc(F)cc2c1-c1nc2c3cccnc3c3ncccc3c2[nH]1
IC50 (second compound 0.0316 µM): 0.915 µM | IC50 (second compound 0.1 µM): 0.878 µM | IC50 (second compound 0.316 µM): 0.923 µM | IC50 (second compound 1 µM): 0.646 µM | IC50 (second compound 3.16 µM): < 0.0316 µM | IC50 (second compound 10 µM): < 0.0316 µM | viability, T/C [1]: 102% | viability, T/C [2]: 83.2% | viability, T/C [3]: 80.3% | viability, T/C [4]: 47.1% | viability, T/C [5]: 22.8% | viability, T/C [6]: 15% | viability, T/C [7]: 93.3% | viability, T/C [8]: 80.5% | viability, T/C [9]: 69.6% | viability, T/C [10]: 49.2% | viability, T/C [11]: 25.2% | viability, T/C [12]: 14.9% | viability, T/C [13]: 74.8% | viability, T/C [14]: 82.6% | viability, T/C [15]: 71.2% | viability, T/C [16]: 46.8% | viability, T/C [17]: 28.4% | viability, T/C [18]: 17.4% | viability, T/C [19]: 74.8% | viability, T/C [20]: 75.8% | viability, T/C [21]: 61.1% | viability, T/C [22]: 42.9% | viability, T/C [23]: 22.5% | viability, T/C [24]: 13.6% | viability, T/C [25]: 40.4% | viability, T/C [26]: 27.8% | viability, T/C [27]: 24.8% | viability, T/C [28]: 16.7% | viability, T/C [29]: 13.9% | viability, T/C [30]: 9.55% | viability, T/C [31]: 32% | viability, T/C [32]: 23% | viability, T/C [33]: 22.6% | viability, T/C [34]: 16.5% | viability, T/C [35]: 14.9% | viability, T/C [36]: 10.9%
